# Reference: patent US6204293A, “Inhibitors of protein isoprenyl transferases” (University of Pittsburgh, priority 1998, dated 2001)
# Counter-ions that a name gives are not always drawn.
# Target: T1, Rat brain protein farnesyltransferase (Rattus norvegicus, UniProt Q02293+Q04631)
# T1 construct: Rat brain protein farnesyltransferase activity is measured; from tissue; host or cells: rat brain
# Assay: % inhibition of farnesylation, scintillation proximity assay with biotin-K Ras B fragment
# Format: biochemical
# Details: Table 6; * footnote 0.1 μM (title: 0.1 mM)
# Summary of the method: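 Rat brain enzyme, purified through three steps, in a scintillation proximity assay kit with biotin-K Ras B fragment substrate at 0.1 mM final. Value is % inhibition of farnesylation.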
# T1 sequence (Q02293 whole entry, one chain of several): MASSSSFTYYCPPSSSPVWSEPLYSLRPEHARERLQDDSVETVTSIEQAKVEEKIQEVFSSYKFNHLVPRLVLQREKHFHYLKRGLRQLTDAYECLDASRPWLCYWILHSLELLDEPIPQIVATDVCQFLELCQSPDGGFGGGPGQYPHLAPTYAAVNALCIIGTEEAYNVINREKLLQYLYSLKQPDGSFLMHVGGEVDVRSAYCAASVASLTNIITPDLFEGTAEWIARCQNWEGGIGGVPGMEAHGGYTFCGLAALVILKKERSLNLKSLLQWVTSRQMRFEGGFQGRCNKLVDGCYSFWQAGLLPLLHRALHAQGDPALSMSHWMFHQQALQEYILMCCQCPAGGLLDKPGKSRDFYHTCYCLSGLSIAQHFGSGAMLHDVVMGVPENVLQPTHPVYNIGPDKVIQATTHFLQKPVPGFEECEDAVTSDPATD
row,% inhibition at 0.1 μM (*),Compound
1,83%,CCC(=O)N(CCCc1ccc(C(=O)N[C@@H](CCSC)C(=O)O)c(-c2ccccc2C)c1)C1CCCCC1 [Example 1145]
2,87%,CCCCN(CCN1CCCCC1)Cc1ccc(C(=O)N[C@@H](CCSC)C(=O)O)c(-c2ccccc2C)c1 [Example 1196]

# Same assay, conditions: Table 6; ** footnote 0.01 μM (title: 0.01 mM)
row,% inhibition at 0.01 μM (**),Compound
1,89%,COCCN(CCC1CCCCC1)Cc1ccc(C(=O)N[C@@H](CCSC)C(=O)O)c(-c2ccccc2C)c1 [Example 1104]
2,95%,CCSCC(CC1CCCCC1)NCc1cc(-c2ccccc2C)c(C(=O)N[C@@H](CCSC)C(=O)O)cc1F (some centres unmarked) [Example 1134]

row,Compound,% inhibition at 0.01 μM (**)
1,CSCC[C@H](NC(=O)c1ccc(CN(CCF)CCC2CCCCC2)cc1-c1ccccc1C)C(=O)O [Example 1094],96%

# Same assay, conditions: read-out: % inhibition at 0.01 μM (**)
row,Compound,inhibition at 0.01 µM
1,"CCCCC(OCc1ccc(C(=O)N[C@@H](CCSC)C(=O)O)c(-c2ccccc2C)c1)c1cccc(Cl)c1 (some centres unmarked) [Example 1206, N-[4-(1-(3-chlorophenyl)pentan-1-yloxymethyl)-2-(2-methylphenyl)benzoyl]methionine lithium salt]",63%

# Same assay, conditions: read-out: % inhibition at 0.01 μM (**); Table 6; ** footnote 0.01 μM (title: 0.01 mM)
row,Compound,inhibition at 0.01 µM
1,"COc1ccc(COC[C@H](CC2CCCCC2)OCc2ccc(C(=O)N[C@@H](CCSC)C(=O)O)c(-c3ccccc3C)c2)cc1 [Example 1051, N-[4-(3-cyclohexyl-1-(4-methoxybenzyloxy)prop-2-yloxymethyl)-2-(2-methylphenylbenzoyl]methionine, lithium salt]",79%
2,"CSCC[C@H](NC(=O)c1ccc(CO[C@@H](CC2CCCCC2)C(=O)N2CCOCC2)cc1-c1ccccc1C)C(=O)O [Example 1053, N-[4-(3-cyclohexyl-N-morpholin-4-ylpropion-2-yloxymethyl)-2-(2-methylphenyl)benzoyl]methionine, lithium salt]",60%
3,"CSCC[C@H](NC(=O)c1ccc(CO[C@@H](CC2CCCCC2)C(=O)N2CC[S+]([O-])CC2)cc1-c1ccccc1C)C(=O)O [Example 1055, N-[4-(3-cyclohexyl-N-thiomorpholin-S-oxide-4-ylpropion-2-yloxymethyl)-2-(2-methylphenyl)benzoyl]methionine, lithium salt]",85%
4,"CSCC[C@H](NC(=O)c1ccc(COCc2ccc(C3CCCCC3)o2)cc1-c1ccccc1C)C(=O)O [Example 1090, [4-(2-(5-cyclohexylfuranyl)methoxymethyl)-2-(2-methylphenyl)-benzoyl]methionine, lithium salt]",81%
5,"CSCC[C@H](NC(=O)c1ccc(COC(CC2CCCCC2)c2scnc2C)cc1-c1ccccc1C)C(=O)O (some centres unmarked) [Example 1097, N-[4-(1-(4-methylthiazol-5-yl)-2-cyclohexylethoxy)methyl)-2-(2-methylphenyl)benzoyl]methionine lithium salt]",80%
6,"CSCC[C@H](NC(=O)c1ccc(COCC2CCCN2C(=O)OCC2CCCCC2)cc1-c1ccccc1C)C(=O)O (some centres unmarked) [Example 1129, N-[4-(N-cyclohexylmethoxycarbonylpyrrolin-2-ylmethoxymethyl)-2-(2-methylphenyl)benzoyl]methionine Sodium salt]",92%

# More lines, now with the values ahead:
row,inhibition at 0.01 µM,Compound
1,93%,"CSCC[C@H](NC(=O)c1ccc(CO[C@H](CO)CC2CCCCC2)cc1-c1ccccc1C)C(=O)O [Example 1049, N-[4-(3-cyclohexyl-1-hydroxyprop-2-yloxymethyl)-2-(2-methylphenyl)benzoyl]methionine, lithium salt]"
2,62%,"COCCOCOC[C@H](CC1CCCCC1)OCc1ccc(C(=O)N[C@@H](CCSC)C(=O)O)c(-c2ccccc2C)c1 [Example 1050, N-[4-(3-cyclohexyl-1-(2-methoxyethoxymethyleneoxy)prop-2-yloxymethyl)-2-(2-methylphenyl)benzoyl]methionine, lithium salt]"
3,91%,"CSCC[C@H](NC(=O)c1ccc(CO[C@@H](CC2CCCCC2)C(=O)N2CCCCC2)cc1-c1ccccc1C)C(=O)O [Example 1052, N-[4-(3-cyclohexyl-N-piperidin-1-ylpropion-2-yloxymethyl)-2-(2-methylphenyl)benzoyl]methionine, lithium salt]"
4,89%,"CSCC[C@H](NC(=O)c1ccc(CO[C@@H](CC2CCCCC2)C(=O)N2CCSCC2)cc1-c1ccccc1C)C(=O)O [Example 1054, N-[4-(3-cyclohexyl-N-thiomorpholin-4-ylpropion-2-yloxymethyl)-2-(2-methylphenyl)benzoyl]methionine, lithium salt]"

# Same assay, conditions: read-out: % inhibition at 0.1 μM (*)
row,Compound,inhibition at 0.1 µM
1,"CSCC[C@H](NC(=O)c1ccc(COC(CCC2CCCCC2)c2cccc(Cl)c2)cc1-c1ccccc1C)C(=O)O (some centres unmarked) [Example 1207, N-[4-(1-(3-chlorophenyl)-3-cyclohexylpropan-1-yloxymethyl)-2-(2-methylphenyl)benzoyl]methionine lithium salt]",91%
2,"CCCCC(OCc1ccc(C(=O)N[C@@H](CCSC)C(=O)O)c(-c2ccccc2C)c1)c1cccc(OC)c1 (some centres unmarked) [Example 1208, N-[4-(1-(3-Methoxyphenyl)pentan-1-yloxymethyl)-2-(2-methylphenyl)benzoyl]methionine lithium salt]",89%

# Same assay, conditions: read-out: % inhibition at 0.1 μM (*); Table 6; * footnote 0.1 μM (title: 0.1 mM)
row,Compound,inhibition at 0.1 µM
1,"CSCC[C@H](NC(=O)c1ccc(COCc2ccc(CO)cc2)cc1-c1ccccc1C)C(=O)O [Example 1045, N-[4-(4-hydroxymethylbenzyloxymethyl)-2-(2-methylphenyl)benzoyl]methionine,lithium salt]",86%
2,"CCCCC(OCc1ccc(C(=O)N[C@@H](CCSC)C(=O)O)c(-c2ccccc2C)c1)c1scnc1C (some centres unmarked) [Example 1095, N-[4-(1-(4-methylthiazol-5-yl)pentyloxy)methyl)-2-(2-methylphenyl)benzoyl]methionine lithium salt]",76%
3,"CSCC[C@H](NC(=O)c1ccc(COC(CC2CCCCC2)c2sc(C)nc2C)cc1-c1ccccc1C)C(=O)O (some centres unmarked) [Example 1096, N-[4-(1-(2,4-dimethylthiazol-5-yl)-2-cyclohexylethoxy)methyl)-2-(2-methylphenyl)benzoyl]methionine lithium salt]",86%
4,"CCCCC(OCc1ccc(C(=O)N[C@@H](CCSC)C(=O)O)c(-c2ccccc2C)c1)c1sc(C)nc1C (some centres unmarked) [Example 1098, N-[4-1-(2,4-dimethylthiazol-5-yl)pentyloxy)methyl-2-(2-methylphenyl)benzoyl]methionine lithium salt]",60%
5,"CSCC[C@H](NC(=O)c1ccc(COCC2CCCN2C(=O)OCc2ccccc2)cc1-c1ccccc1C)C(=O)O (some centres unmarked) [Example 1128, lithium salt]",86%

# The remaining lines, values ahead:
row,inhibition at 0.1 µM,Compound
1,96%,"CSCC[C@H](NC(=O)c1ccc(CCC(=O)OC2CCCCC2)cc1-c1ccccc1C)C(=O)O [Example 1152, N-[4-(cyclohexyloxycarbonylethyl)-2-(2-methylphenyl)benzoyl]methionine]"
2,89%,"CSCC[C@H](NC(=O)c1ccc(CCC(=O)OCC2CCCCC2)cc1-c1ccccc1C)C(=O)O [Example 1153, N-[4-(cyclohexylmethoxycarbonylethyl)-2-(2-methylphenyl)benzoyl]methionine]"
3,91%,"CCCCC(CCC1CCCCC1)OCc1ccc(C(=O)N[C@@H](CCSC)C(=O)O)c(-c2ccccc2C)c1 (some centres unmarked) [Example 1192, N-[4-(1-Cyclohexylheptan-3-yloxymethyl-2-(2-methylphenyl)benzoyl]methioninelithium salt]"
